# Assay results from US20040116420A1 (priority 2001, published 2004).
# Legend:
# [1] = molecular target: T1, HSV-1 protease (Human herpesvirus 1, UniProt P10210); assay: Enzymatic assay for HSV-1 protease (assembly) inhibitor, fluorescence polarization; assay type: biochemical; details: read-out: HSV-1 Enzyme inhibition IC50
# T1 construct: 6xHis (N); made in house; host or cells: baculovirus expression system
# Protocol: An enzymatic assay method for an HSV-1 protease (assembly) inhibitor
# The activity of an assembly protease was determined by fluorescence polarization. Biotin-gamma-amino butyrate-[…]-DTAF was used as a fluorescent substrate in accordance with an HSV-1 release and cleavage site. […] Changes in the sizes of fluorescent substrate molecules that increased with the use of avidin as a reaction terminator were assayed by fluorescence polarization.
# The test compound was dissolved in DMF, and the resultant was diluted 5-fold with an assay buffer. 6.5 μl thereof was added to wells of a 96-well plate (a U-bottomed 96-well plate, Coster) that had previously been blocked with a blocking solution (10 mM Tris-HCl (pH 8.0), 150 mM sodium chloride, 0.05% Tween 20, 1 mg/ml of BSA). The enzyme was diluted to 21.3 μg/ml with an assay buffer (1M sodium citrate, 50 mM sodium phosphate (pH 7.4), 100 mM sodium chloride, 20% glycerol, 2 mM TCEP), and 48.5 μl of the resultant was added to each well. The plate was incubated at room temperature for 30 minutes, and 10 μl of 62.5 μg/ml substrate solution was then added to each well. The plate was incubated at room temperature for 60 minutes, and 50 μl of 2 mg/ml avidin phosphate buffer solution (50 mM sodium phosphate, 100 mM sodium chloride (pH 7.4)) was added to each well. The activity was determined in comparison with a compound without protease inhibitor using a microplate reader for fluorescence polarization.
# HSV-1 protease was purified from a vaculovirus that had expressed a DNA construct encoding the reading frame for HSV-1UL26. This construct had further encoded 6 histidine residues at the amino terminus of the protease. These additional histidine residues impart affinity ligands purified by nickel-nitriloacetic acid-agarose (Qiagen). The purified protease was stored as a stock solution for a 20 mM HEPES buffer (pH 8.5, containing 20% v/v glycerin). This stock solution was diluted with an assay buffer and then used in the enzyme reaction.
# In accordance with the cleavage specificity of the HSV-1 protease at the “release site” of the assembled protein, a specific substrate was synthesized (Diianni et al., J. Biol. Chem. 268, 2048 (1993)). This assembly protein-release site had the sequence • HTYLQA*SEKFKMW • , and the substrate used was biotin-gamma-amino butyrate-HTYLQA*SERFRIK-DTAF. This is a standard method for peptide synthesis, for example, as in the a method described in “The Practice of Peptide Synthesis” (Bodansky and Bodansky (1984)). The product was stored as a 2.5 mg/ml stock solution in DMF. The resultant was diluted to 62.5 μg/ml with a phosphate buffer (50 mM sodium phosphate, 100 mM sodium chloride, (pH 7.4)) immediately before its use.
# An assay buffer (1M sodium citrate, 50 mM sodium phosphate (pH 7.4), 100 mM sodium chloride, 20% glycerol, 2 mM TCEP) was used to dilute a stock solution for the enzyme and that for the inhibitor.
# [2] = tested on: HSV-1; assay: Antiviral activity, HSV-1 in Vero cells, plaque method; assay type: cell-based; details: Human alphaherpesvirus 1, 20 hours, 90% inhibition of plaque formation
# Protocol: An Assay Method for Antiviral Activity These complementary assay methods examine the capacity of a compound to inhibit the generation of new viruses and to inhibit the toxicity of the compound against the host cell. Toxicity indirectly decreases the generation of viruses. Thus, it is important to simultaneously conduct both assays in order to directly compare the results. The Vero cells were sown on a 96-well plate and then cultured overnight. The culture supernatant was removed, and 100 μl of 2% FBS-DMEM containing 50,000 plaque-forming units (hereinafter abbreviated as “pfu”) of HSV-1 was added. A viral solution was removed and 200 μl of 2% FBS-DMEM comprising a test compound was added. In this case, a substance to which 2% FBS-DMEM not comprising any test compound had been added was determined as a control. These infected cells were incubated in the presence of 5% CO2 at 37° C. for 20 hours, and the medium was once allowed to freeze at −80° C. The culture solution was dissolved, and the amount of viruses in the culture solution was assayed by the plaque method. The concentration of the test compound when it inhibited 90% of plaque formation relative to the control was determined to be EC 90.
# T1 sequence (P10210 1-247): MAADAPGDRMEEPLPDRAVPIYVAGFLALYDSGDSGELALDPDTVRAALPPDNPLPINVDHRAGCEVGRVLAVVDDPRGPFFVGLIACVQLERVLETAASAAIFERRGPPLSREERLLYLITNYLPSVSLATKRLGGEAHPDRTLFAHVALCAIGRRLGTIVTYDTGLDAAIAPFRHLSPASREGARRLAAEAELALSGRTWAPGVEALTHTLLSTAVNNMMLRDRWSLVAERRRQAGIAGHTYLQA
IC50 [1] [nM],EC90 [2] [nM],SMILES
300,> 12500,"Cc1c(NC(=O)CCCNC(=O)c2ccc(C(F)(F)F)cc2)ccc2nc(NC(C)(C)C(=O)N(C)CCc3ccccn3)oc(=O)c12 [Compound No.213, N-[3-(5-Methyl-2-{1-methyl-1-[methyl-(2-pyridin-2-yl-ethyl)-carbamoyl]-ethylamino}-4-oxo-4H-benzo [d][1,3]oxazin-6-ylcarbamoyl)-propyl]-4-trifluoromethyl-benzamide]"
400,> 12500,"Cc1c(NC(=O)CCCNC(=O)OC(C)(C)C)ccc2nc(NC(C)(C)C(=O)N(C)CCc3ccccn3)oc(=O)c12 [Compound No.203, [3-(5-Methyl-2-{1-methyl-1-[methyl-(2-pyridin-2-yl-ethyl)-carbamoyl]-ethylamino}-4-oxo-4H-benzo[d][1,3]oxazin-6-ylcarbamoyl)-propyl]-carbamic acid tert-butyl ester]"
1000,> 20000,"Cc1c(NC(=O)CCNC(=O)OC(C)(C)C)ccc2nc(N(C)CC(=O)N(C)CCc3ccccn3)oc(=O)c12 [Compound No.226, {2-[5-methyl-2-(methyl-{[methyl-(2-pyridin-2-yl-ethyl)-carbamoyl]-methyl}-amino)-4-oxo-4H-benzo[d][1,3]oxazin-6-ylcarbamoyl]-ethyl}-carbamic Acid Tert-Butyl Ester]"
3000,> 12500,"Cc1c(NC(=O)CCNC(=O)c2ccc(C(F)(F)F)cc2)ccc2nc(N[C@@H](C)C(=O)N(C)CCc3ccccn3)oc(=O)c12 [Compound No.216, N-[2-(5-Methyl-2-{1S-[methyl-(2-pyridin-2-yl-ethyl)-carbamoyl]-ethylamino}-4-oxo-4H-benzo[d][1,3]oxazin-6-ylcarbamoyl)-ethyl]-4-trifluoromethyl-benzamide]"
900,> 12500,"Cc1c(NC(=O)CCCNC(=O)c2ccc(C(F)(F)F)cc2)ccc2nc(N[C@@H](C)C(=O)N(C)CCc3ccccn3)oc(=O)c12 [Compound No.219, N-[3-(5-Methyl-2-{1S-[methyl-(2-pyridin-2-yl-ethyl)-carbamoyl]-ethylamino}-4-oxo-4H-benzo[d][1,3]oxazin-6-ylcarbamoyl)-propyl]-4-trifluoromethyl-benzamide]"
300,> 12500,"Cc1c(NC(=O)CCCNC(=O)OCc2ccccc2)ccc2nc(NC(C)(C)C(=O)N(C)CCc3ccccn3)oc(=O)c12 [Compound No.204, [3-(5-Methyl-2-{1-methyl-1-[methyl-(2-pyridin-2-yl-ethyl)-carbamoyl]-ethylamino}-4-oxo-4H-benzo[d][1,3]oxazin-6-ylcarbamoyl)-propyl]-carbamic acid benzyl ester]"
2400,> 20000,"Cc1c(NC(=O)CCNC(=O)OC(C)(C)C)ccc2nc(N[C@H](C)C(=O)N(C)CCc3ccccn3)oc(=O)c12 [Compound No.227, [2-(5-Methyl-2-{1R-[methyl-(2-pyridin-2-yl-ethyl)-carbamoyl]-ethylamino}-4-oxo-4H-benzo[d][1,3]oxazin-6-ylcarbamoyl)-ethyl]-carbamic acid tert-butyl ester]"
900,> 12500,"Cc1c(NC(=O)CCNC(=O)c2cccs2)ccc2nc(NC(C)(C)C(=O)N(C)CCc3ccccn3)oc(=O)c12 [Compound No.209, thiophene-2-carboxylic acid [2-(5-methyl-2-{1-methyl-1-[methyl-(2-pyridin-2-yl-ethyl)-carbamoyl]-ethylamino}-4-oxo-4H-benzo[d][1,3]oxazin-6-ylcarbamoyl)-ethyl]-amide]"
1100,> 12500,"Cc1c(NC(=O)CCCNC(=O)OC(C)(C)C)ccc2nc(N[C@@H](C)C(=O)N(C)CCc3ccccn3)oc(=O)c12 [Compound No.207, [3-(5-Methyl-2-{1S-[methyl-(2-pyridin-2-yl-ethyl)-carbamoyl]-ethylamino}-4-oxo-4H-benzo[d][1,3]oxazin-6-ylcarbamoyl)-propyl]-carbamic acid tert-butyl ester]"

# Continued, molecule first:
SMILES,IC50 [1] [nM],EC90 [2] [nM]
"Cc1c(NC(=O)OC(C)(C)C)ccc2nc(NC3(C(=O)N(C)Cc4cccnc4)CCCC3)oc(=O)c12 [Compound No.119, {5-Methyl-2-[1-(methyl-pyridin-3-ylmethyl-carbamoyl)-cyclopentylamino]-4-oxo-4H-benzo[d][1,3]oxazin-6-yl}-carbamic acid tert-butyl ester]",700,> 12500
"Cc1c(NC(=O)OC(C)(C)C)ccc2nc(NC3(C(=O)N(C)CCc4ccccn4)CCCCC3)oc(=O)c12 [Compound No.124, (5-Methyl-2-{1-[methyl-(2-pyridin-2-yl-ethyl)-carbamoyl]-cyclohexylamino}-4-oxo-4H-benzo[d][1,3]oxazin-6-yl)-carbamic acid tert-butyl ester]",1000,6100
"Cc1c(NC(=O)OC(C)(C)C)ccc2nc(NC3(C(=O)N(C)Cc4ccncc4)CCCC3)oc(=O)c12 [Compound No.121, {5-Methyl-2-[1-(methyl-pyridin-4-ylmethyl-carbamoyl)-cyclopentylamino]-4-oxo-4H-benzo[d][1,3]oxazin-6-yl}-carbamic acid tert-butyl ester]",2800,11500
"Cc1c(NC(=O)OC(C)(C)C)ccc2nc(NC(C)(C)C(=O)N(C)Cc3cccnc3)oc(=O)c12 [Compound No.117, {5-Methyl-2-[1-methyl-1-(methyl-pyridin-3-ylmethyl-carbamoyl)-ethylamino]-4-oxo-4H-benzo[d][1,3]oxazin-6-yl}-carbamic acid tert-butyl ester]",700,> 12500
"Cc1c(NC(=O)OC(C)(C)C)ccc2nc(NC3(C(=O)N(C)CCc4ccncc4)CC3)oc(=O)c12 [Compound No.127, (5-Methyl-2-{1-[methyl-(2-pyridin-4-yl-ethyl)-carbamoyl]-cyclopropylamino}-4-oxo-4H-benzo[d][1,3]oxazin-6-yl)-carbamic acid tert-butyl ester]",1800,> 12500
Cc1c(NC(=O)CCCNC(=O)c2ccncc2)ccc2nc(NC(C)(C)C(=O)N(C)CCc3ccccn3)oc(=O)c12,500,> 12500
"Cc1c(NC(=O)OC(C)(C)C)ccc2nc(NCC(=O)N(C)CCc3ccccn3)oc(=O)c12 [Compound No.130, [5-methyl-2-({[methyl-(2-pyridin-2-yl-ethyl)-carbamoyl]-methyl}-amino)-4-oxo-4H-benzo[d][1,3]oxazin-6-yl]-carbamic Acid Tert-Butyl Ester]",400,> 20000
"Cc1c(NC(=O)OC(C)(C)C)ccc2nc(NC3(C(=O)N(C)CCc4ccccn4)CC3)oc(=O)c12 [Compound No.122, (5-Methyl-2-{1-[methyl-(2-pyridin-2-yl-ethyl)-carbamoyl]-cyclopropylamino}-4-oxo-4H-benzo[d][1,3]oxazin-6-yl)-carbamic acid tert-butyl ester]",1600,> 12500
"Cc1c(NC(=O)c2cccs2)ccc2nc(NC(C)(C)C(=O)N(C)CCc3ccccn3)oc(=O)c12 [Compound No.134, Thiophene-2-carboxylic Acid (5-methyl-2-{1-methyl-1-[methyl-(2-pyridin-2-yl-ethyl)-carbamoyl]-ethylamino}-4-oxo-4H-benzo[d][1,3]oxazin-6-yl)-amide]",900,> 12500
